Test results: patent US20070037238A1, “Composition for suppressing PQQGDH reaction inhibition” (Toyo Boseki Kabushiki Kaisha, priority 2005, published 2007)

Tested on: PQQGDH
Test: Measurement with glucose electrodes
Assay type: biochemical
Conditions: 0.1 M potassium ferricyanide, D-glucose 5-40 mM, 25° C., +0.35 V
Procedure: 0.5 g of carbon graphite and 0.3 mL of fluid paraffin were ground well with a mortar and pestle to form a carbon paste. This carbon paste was spread on a platinum electrode, and 10 μL of PQQGDH solution (Toyo Boseki GLD-331, 2,000 U/mL) was placed thereon and air-dried for 30 minutes at room temperature. This electrode was covered with a semipermeable cellulose membrane (molecular weight cut-off 8.000), and the semipermeable membrane was fixed with an O-ring to prepare a glucose electrode. This glucose electrode was used after having been soaked for 30 minutes or more in the buffer used for measurement. […] After about 5 minutes when the response current was confirmed to have stabilized, a D-glucose solution was added and the rise in the response current was monitored. […] The theoretical values here are the response value at each concentration calculated based on measurement values at 5 mM, assuming that the D-glucose amount and measurement value are proportional, and these are given as straight lines in the figures. The response values were more linear when pimelic acid and succinic acid were added in comparison to the solution of phosphoric acid and glutaric acid alone, and the actual measured response values at glucose concentrations of 30 mM or more are particularly close to the corresponding theoretical values.

Row | SMILES | linearity of glucose electrode response values versus D-glucose concentration (1% succinic acid in 50 mM glutaric acid pH 7.0 (Buffer D vs Buffer C)) | linearity of glucose electrode response values versus D-glucose concentration (1% pimelic acid in 50 mM potassium phosphate buffer pH 7.0 (Buffer B vs Buffer A))
1 | O=C(O)CCC(=O)O [succinic acid] | more linear | –
2 | O=C(O)CCCCCC(=O)O [pimelic acid] | – | more linear
